According to patent publication EP4635969A1, “NOVEL GLUCOCORTICOID, METHOD FOR PREPARING SAME, AND USE THEREOF” (Tianjin Pharmaceutical Biotechnology Co., Ltd., priority 2022, dated 2024):

Legend:
[1] = test system: inflammatory cytokines IL-6 and IL-12; test: Anti-asthma pharmacodynamic experiment: inflammatory cytokines in bronchoalveolar lavage fluid (ELISA); format: in vivo, female BALB/c mice; conditions: compared with the model group
asthma model mice = test: Anti-asthma pharmacodynamic experiment: airway hyperresponsiveness (Penh) after methacholine challenge; format: in vivo, female BALB/c mice; conditions: compared with the model group
Experimental: Pharmacological Example 4: Pharmacodynamic Experiment on Anti-Asthma
The suspensions were stored at room temperature protected from light until use.
Positive control drug: Budesonide Suspension for Inhalation (specification: 2 mL: 1 mg; AstraZeneca Inc.; Lot No. : 327392) was diluted with injection-grade sodium chloride solution to 0.3 mg/ml as the positive control drug, and stored at room temperature protected from light until use.
Sixty female BALB/c mice underwent a one-week adaptive feeding period. Ten mice were randomly selected as the blank control group, while 50 mice were selected to establish asthma models.
From days 21 to 23 after sensitization, the mice in the model group and drug administration group were exposed to a 30-minute aerosol challenge with 5% OVA, while the mice in the blank control group were exposed to normal saline aerosol for the same duration.
Airway responsiveness was measured in all groups of mice after the last challenge. The mice were placed into a plethysmography chamber, and baseline Penh values were recorded. Subsequently, the mice were challenged with aerosolized methacholine at concentrations from low to high of 0, 6.25, and 12.5 mg/mL, with an aerosol volume of 100 µ L each time for 60 s. […] Penh values were then recorded for 3 min and averaged to compare the airway responsiveness of each group of mice.
Statistical analysis was performed using SPSS software. Measurement data were expressed as mean ± standard deviation. One-way ANOVA was used for intergroup comparisons. For data with homogeneous variance, LSD test was used; for data with heterogeneous variance, Dunnett-t test was used. A value of P < 0.05 was considered statistically significant.

[2] = test system: dry eye syndrome model New Zealand rabbits; test: Dry eye syndrome experiment (benzalkonium chloride model): corneal fluorescein sodium staining; format: in vivo, male New Zealand White rabbits; conditions: compared with the model group
[3] = test system: dry eye syndrome model New Zealand rabbits; test: Dry eye syndrome experiment (benzalkonium chloride model): tear secretion test with phenol red cotton threads; format: in vivo, male New Zealand White rabbits; conditions: compared with the model group
Experimental: Positive control drug: Fluorometholone Eye Drops (specification: 5 mL/5 mg; Santen Pharmaceutical (CHINA) Co., Ltd.; Lot No.: 1FM6625) was used as the positive control drug and stored at room temperature protected from light until use.
Thirty male New Zealand White rabbits (conventional grade) were prepared. Six rabbits were randomly selected as the blank control group, and the remaining animals were administered 0.1% benzalkonium chloride to the left eye twice daily (morning and evening) , 10 µL/animal each time. On day 6 of modeling, tear secretion was measured using phenol red cotton threads to determine whether the model was successfully established. […] During the administration, all animals except the blank control group were administered 10 µL of 0.1% benzalkonium chloride to the left eye once daily to maintain dry eye symptoms..
• Test time: D3, D7, D15; • Test animals: All animals were tested before grouping; all enrolled surviving animals were tested after administration; • Test method: Tear secretion was measured using phenol red cotton threads. The tear secretion test paper was folded and placed at the middle and outer 1/3 of the rabbit palpebral conjunctival sac for 1 min. The test paper was then removed, observed, and recorded for its wetting length. The test was repeated 3 times, and the values were averaged.
The normality and homogeneity of variance were tested by Levene's test. If there was no statistical significance (P > 0.05), one-way analysis of variance (ANOVA) was used for statistical analysis. If ANOVA was statistically significant (P ≤ 0.05), LSD test (parametric method) was used for comparative analysis. If the variance was heterogeneous (P ≤ 0.05), Kruskal-Wallis test was used. If the Kruskal-Wallis test was statistically significant (P ≤ 0.05), Dunnett's test (nonparametric method) was used for comparative analysis.

[4] = Pharmacokinetic (PK) experiment in rats; format: in vivo, male SD rats; conditions: same experimental conditions
How it was run: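 Male SD rats dosed by body weight, oral group fasted overnight until 4 h post-dose. Jugular blood sampled 2 min–24 h into heparin; plasma analysed and PK parameters derived from concentration–time data.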

[5] = test system: inflammatory bowel disease model rats; test: Inflammatory bowel disease experiment (TNBS model): macroscopic injury score of the colon; format: in vivo; conditions: for inflammatory response on the intestinal surface / intestinal symptoms: compared with the model group
How it was run: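 Colitis in rats was induced by intrarectal TNBS 50 mg/kg (20 mg/mL in 50% ethanol) after 24 h fasting. Dosing began 1 h before induction, then daily for 5 days. On day 5 colon was scored macroscopically for adhesion, obstruction, wall thickening, congestion and necrosis, with ANOVA/Dunnett or Kruskal-Wallis/Mann-Whitney statistics.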

[6] = test system: inflammatory cytokines (TNF-α); test: Anti-uveitis pharmacodynamic experiment (LPS model): inflammatory cytokines in aqueous humor (ELISA); format: in vivo, male SD rats; conditions: values not given
How it was run: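 Male SD rats given uveitis by single subplantar injection of LPS (Salmonella) 1 mg/kg, then bilateral ocular dosing of 40 µL 5 mg/5 mL ophthalmic suspension three times daily for 2 days.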

C[C@]12C=CC(=O)C=C1[C@@H](F)C[C@H]1[C@@H]3C[C@H]4OC(c5ccc(CSC6CCOC6=O)cc5)O[C@@]4(C(=O)SCF)[C@@]3(C)C[C@H](O)[C@@]12F (stereo partly drawn) [Compound 34, S-(Fluoromethyl) (2S,6aS,6bR,7S,8aS,8bS,11aR,12aS,12bS)-2,6b-difluoro-7-hydroxy-6a,8a-dimethyl-4-oxo-10-(4-( ((2-oxotetrahydrofuran-3-yl)thio)methyl)phenyl)-1,2,4,6a,6b,7,8,8a,11a,12,12a,12b-dodecahydro-8bH-naphtho[2',1':4,5]indeno[1,2-d][1,3]dioxole-8b-carbothioate]
Effects on inflammatory cytokines in bronchoalveolar lavage fluid of mice [1]: pharmacological effects similar to those of compound 23
Effects on airway hyperresponsiveness (Penh values) in mice (asthma model mice): significantly decreased the Penh values in mice
inflammatory response on the ocular surface / ocular symptoms [2]: significantly alleviated the ocular symptoms in dry eye syndrome model New Zealand rabbits
tear secretion [3]: significantly increased the tear secretion
pharmacokinetic properties (plasma clearance rate, systemic exposure) [4]: pharmacokinetic properties similar to those of compound 8
Macroscopic injury score ([5]; colon, day 5 after TNBS, 2 mg/kg once a day (compounds intraintestinally, dexamethasone by gavage)): 5.00 ± 0.95
inflammatory response on the intestinal surface / intestinal symptoms [5]: significantly inhibited the inflammatory response on the intestinal surface
inflammatory cytokines in aqueous humor [6]: suppressed inflammatory cytokines in aqueous humor

C[C@]12C=CC(=O)C=C1[C@@H](F)C[C@H]1[C@@H]3C[C@H]4OC(c5ccc(CSC6CCOC6=O)cc5)O[C@@]4(C(=O)SCC#N)[C@@]3(C)C[C@H](O)[C@@]12F (stereo partly drawn) [Compound 35, S-(Cyanomethyl) (2S,6aS,6bR,7S,8aS,8bS,11aR,12aS,12bS)-2,6b-difluoro-7-hydroxy-6a,8a-dimethyl-4-oxo-10-(4-( ((2-oxotetrahydrofuran-3-yl)thio)methyl)phenyl)-1,2,4,6a,6b,7,8,8a,11a,12,12a,12b-dodecahydro-8bH-naphtho[2',1':4,5]indeno[1,2-d][1,3]dioxole-8b-carbothioate]
Effects on inflammatory cytokines in bronchoalveolar lavage fluid of mice [1]: pharmacological effects similar to those of compound 23
Effects on airway hyperresponsiveness (Penh values) in mice (asthma model mice): significantly decreased the Penh values in mice
inflammatory response on the ocular surface / ocular symptoms [2]: significantly alleviated the ocular symptoms in dry eye syndrome model New Zealand rabbits
tear secretion [3]: significantly increased the tear secretion
pharmacokinetic properties (plasma clearance rate, systemic exposure) [4]: pharmacokinetic properties similar to those of compound 8
inflammatory response on the intestinal surface / intestinal symptoms [5]: significantly alleviated the intestinal symptoms in inflammatory bowel disease model rats
inflammatory cytokines in aqueous humor [6]: suppressed inflammatory cytokines in aqueous humor
